The values below come from patent publication US20250186489A1, “REPROGRAMMING OF CELLS TO TYPE 1 CONVENTIONAL DENDRITIC CELLS OR ANTIGEN-PRESENTING CELLS” (Asgard Therapeutics AB, priority 2021, published 2025).

One experiment has as its system LLC and B16 cells. Description: Effect of valproic acid on reprogramming of mouse cancer cells. The settings on record: for fold enhancement of CD45^+ MHC-II^+ tumour-APC generation: SFFV-PIB-eGFP; for fold enhancement of CD45^+ MHC-II^+ tumour-APC generation / CD45^+ MHC-II^+ tumour-APCs: day 9. In kind it is cell-based. The method, then:
(§1) Cancer cell lines were transduced with PIB-IRES-EGFP lentiviral particles or EGFP as control, and cultured in the presence or absence of VPA from reprogramming day 1 to day 4, and reprogramming efficiency was quantified by flow cytometry at reprogramming day 9 in live EGFP^+ cells according to the surface expression of CD45^+ and MHC-II or HLA-DR. Reprogrammed cells were then analysed as previously described.

Another experiment concerns human cancer cell lines. Description: Effect of valproic acid on cDC1 reprogramming of human cancer cell lines. In kind it is cell-based. The settings on record: VPA from day 1 to day 4, day 9. The method, then:
as §1

Experiment [1] has as its system human embryonic fibroblasts (HEF). Put plainly: cDC1 reprogramming efficiency of human embryonic fibroblasts, flow cytometry for CD45+HLA-DR+ cells at day 9. In kind it is cell-based. The note with it: HEF with Dox-inducible PIB. As for the experimental part:
HEFs, HDFs and Clec9a-tdTomato MEFs were seeded at a density of 40,000 cells per well and MSCs at a density of 50,000 cells per well on 0.1% gelatin coated 6-well plates. On the following day, cells were incubated overnight with either a ratio of 1:1 TetO-PIB and M2rtTA, SFFV-PIB-GFP or SFFV-GFP lentiviral particles in media supplemented with 8 μg/ml polybrene. Cells were transduced overnight twice in consecutive days and media replaced in between. After the second transduction, media was replaced by normal growth media (day 0). When using TetO-PIB, media was supplemented with Dox (1 μg/ml). Media was changed every 2-3 days for the duration of cultures. When stated, media was supplemented with LPS (100 ng/ml, Enzo), Poly I:C (25 μg/ml, InvivoGen) and R848 (3 μg/ml, InvivoGen) overnight. Cytokines were added at day 2 and kept for the duration of cultures; For reprogramming in xeno-free conditions, MSCs were cultured in X-Vivo 15 (Lonza) after transduction and media changed every 2-3 days for the duration of cultures.
For the analysis of surface marker expression, human and mouse cells were dissociated and incubated with antibodies diluted in PBS 5% FBS at 4° C. for 30 minutes in the presence of mouse or rat serum (1/100, GeneTex), for human and mouse cells respectively, to block unspecific binding. Cells were washed and resuspended in PBS 5% FBS and analyzed in BD FACSCanto II or BD LSRFortessa flow cytometers (BD Biosciences), unless stated otherwise. DAPI was used for dead cell exclusion. Flow cytometry data were analyzed using FlowJo software (FLOWJO, LLC, version 10.6.1). All flow cytometry analyses were performed in live single cell gates.
Coding regions of ID2, TXNIP, ZFP36, PLEK, SUB1, JUNB, CREM, KLF4, MXD1, LITAF, IRF7, FOS, NMI, TFEC, SP110, IRF5, STAT2, BATF, ZNF267, IRF1, RELB and BATF2 were individually cloned in the pFUW-TetO plasmid. […] Reprogramming efficiency was evaluated by flow cytometry in HEFs 9 days after transcription factor overexpression.
17 human hematopoietic cytokines including inflammatory mediators (Table 3) were individually added to the culture media 2 days after PIB induction in HEFs, and reprogramming efficiency was measured at day 9. Changes in reprogramming efficiency were analysed using both single cytokines and combinations of two or three cytokines.
The impact on reprogramming efficiency after a combination of cytokine treatment and SFFV-driven PIB induction was evaluated. The scPred system was used for integration with “natural” DCs. See previous Examples for experimental details.
For orientation: A flow cytometer gives signals particle by particle.

The subject of a further experiment is B16-OVA cells. Put plainly: T cell killing assay of B16-OVA target cells. It is filed as cell-based, mouse. The note with it: low (1:1) T cell to target ratio, 3 days co-culture. The method, then:
CD8^+ T cells from spleen of OT-I mice were enriched using a mouse CD8^+ T cell isolation kit (Miltenyi) according to manufacturer's protocol. 6-well untreated plates were coated with anti-CD3 and anti-CD28 at 2×10^−3 mg mL^−1 for 2 h at 37° C. and washed 3× before 1×10^6 T cells per mL were seeded in complete growth media (RPMI) supplemented with murine IL-2 (Peprotech, 100 U mL-1) and murine IL-12p70 (Peprotech, 2.5×10−3 mg mL-1). After 24 h of activation, T cells were re-seeded at 1×10^6 cells per mL in fresh complete RPMI supplemented with murine IL-2 for 48 h on new untreated plates to allow T cell expansion. MACS-sorted reprogrammed mOrange^+ B16-OVA cells or IFN-γ treated cells were seeded with non-fluorescent B16-OVA (mOrange−) in equal numbers, 24 h before co-culture with T cells. Expanded T cells were added in ratios of 0:1, 1:1, 5:1, 10:1 T cell to target cell. […] For flow cytometry analysis, cells were resuspended and stained for viability (DAPI) and anti-CD3 and measured at indicated time points post co-culture with T cells.

Another experiment has as its system chromatin. Put plainly: ChIP-seq of PU.1, IRF8 and BATF3 in HDFs 48 h after induction. In kind it is binding, human. The settings on record: for chromatin binding, number of peaks: factors co-expressed, HDFs, 48 h; for positions shared between the three factors as share of total peaks of the factor: factors expressed together. The method, then: TFs were delivered with a polycistronic lentiviral vector (pFUW-tetO-PIB) or individual vectors (pFUW-tetO-PU.1, pFUW-tetO-IRF8, or pFUW-tetO-BATF3) with pFUW-M2rtTA. ChIP was performed 48 hours after the addition of Dox.
Chromatin in cultured cells was fixed by adding 1/10 volume of freshly-prepared formaldehyde solution [11% Formaldehyde (Sigma), 0.1M NaCl, 1 mM EDTA and 50 mM HEPES] to each cell suspension in complete DMEM. Tubes were left 15 minutes at room temperature with agitation. Fixation was stopped by adding 1/20 volume of […] Glycine solution (Sigma). After 5 minutes incubation, cells were centrifuged at 800 g for 10 min at 4° C. Cell pellets were resuspended in 10 ml chilled PBS-Igepal, 100 μl PMSF were added to each tube and centrifuged at 800 g for 10 minutes at 4° C. Cell pellets were snap-frozen on dry ice and stored at −80° C. Active Motif (Carlsbad, CA) prepared chromatin, performed ChIP, generated libraries and sequenced libraries. Briefly, chromatin was isolated by adding lysis buffer, followed by disruption with a Dounce homogenizer. Lysates were sonicated and the DNA sheared to an average length of 300-500 bp (Active Motif's EpiShear probe sonicator). Genomic DNA (Input) was prepared by treating aliquots of chromatin with RNase, proteinase K and heat for de-crosslinking, followed by clean up using solid phase reversible immobilization (SPRI) beads (Beckman Coulter) and quantitation by Clariostar (BMG Labtech). Extrapolation to the original chromatin volume allowed determination of total chromatin yield. 30 μg of chromatin was pre-cleared with protein A/G agarose beads (Invitrogen). Immunoprecipitations were performed with 4 μg of antibodies against human PU.1, IRF8 and BATF3 (rabbit anti-human PU.1, rabbit anti-human IRF8 or sheep anti-human BATF3). […] To confirm ChIP enrichment, quantitative PCR (QPCR) reactions were carried out in triplicate on specific genomic regions using SYBR Green Supermix (Bio-Rad). […] After a final PCR amplification step, the resulting DNA libraries were quantified and sequenced on Illumina's NextSeq 500 (75 nt reads, single end).
ChIP-seq analysis was performed on the raw FASTQ files. […] For genome tracks, bigwig files were created from bam files with deeptools (https://deeptools.readthedocs.io/en/develop/) and explored using the UCSC Genome Browser. For Chromatin State Fold-Enrichment analysis, enrichment scores for genomic features, such as PU.1, IRF8 and BATF3 ChIP-seq peaks and histone marks were calculated using ChromHMM Overlap Enrichment (http://compbio.mit.edu/ChromHMM/). […] Enrichment scores were calculated as the ratio between the observed and the expected overlap for each feature and chromatin state based on their sizes and the size of the human genome. […]

Regarding `CCCC(CCC)C(=O)O` [VPA, valproic acid], the “fold enhancement of CD45^+ MHC-II^+ tumour-APC generation” value in the experiment on LLC and B16 cells (B16 cells) is approximately 5 fold; with LLC and B16 cells (LLC cells) it was approximately 3 fold. For the same molecule, the “CD45^+ MHC-II^+ tumour-APCs” value in the experiment on LLC and B16 cells (B16 cells, 5.9±4.8% without VPA) worked out at 29.9±19.3%; with LLC and B16 cells (LLC cells, 15.8±4.79% without VPA), 45.9±25.5%. Also, the “MHC-I in transduced cells” value with LLC and B16 cells (LLC and B16 cells transduced with PIB) is listed as “upregulate MHC-I”. Moreover, the “antigen presentation function of tumour-APCs generated in the presence of VPA” value with LLC and B16 cells (LLC-OVA and B16-OVA cells, OT-I CD8^+ T cells) is reported as “presented endogenous antigens to OT-I CD8^+ T cells”. The “reprogramming efficiency in human cancer cells” value in the experiment with human cancer cell lines is “increased reprogramming efficiency in all tested lines”.
As to IFN-γ: cytokine, the “fold increase in reprogramming efficiency versus condition without cytokines” value in experiment [1] was found to be 20 fold. Further, the “CD45^+ HLA-DR^+ cell generation (hiDCs)” value in experiment [1] (cytokine added 2 days after induction, 0.4%±0.2% without cytokines) is 7.9%±2.2%. Besides, in the experiment with B16-OVA cells, the “target cells killed by T cells” value is 12.31±7.1%.

B1: IRF8: transcription factor of the interferon regulatory factor family, SEQ ID NO: 11 (protein, listed as Homo sapiens)
chain: MCDRNGGRRLRQWLIEQIDSSMYPGLIWENEEKSMFRIPWKHAGKQDYNQEVDASIFKAWAVFKGKFKEGDKAEPATWKTRLRCALNKSPDFEEVTDRSQLDISEPYKVYRIVPEEEQKCKLGVATAGCVNEVTEMECGRSEIDELIKEPSVDDYMGMIKRSPSPPEACRSQLLPDWWAQQPSTGVPLVTGYTTYDAHHSAFSQMVISFYYGGKLVGQATTTCPEGCRLSLSQPGLPGTKLYGPEGLELVRFPPADAIPSERQRQVTRKLFGHLERGVLLHSSRQGVFVKRLCQGRVFCSGNAVVCKGRPNKLERDEVVVFDTSQFFRELQQFYNSQGRLPDGRVVLCFGEEFPDMAPLRSKLILVQIEQLYVRQLAEEAGKSCGAGSVMQAPEEPPPDQVFRMFPDICASHQRSFFRENQQITV
modifications: Human IRF8 isoform 1 (protein sequence)
Regarding B1, in the experiment on chromatin, the “chromatin binding, number of peaks” value is 18,962 peaks and the “positions shared between the three factors as share of total peaks of the factor” value came to 28%.

B2: BATF3: nuclear basic leucine zipper transcription factor, SEQ ID NO: 10 (protein, listed as Homo sapiens)
chain: MSQGLPAAGSVLQRSVAAPGNQPQPQPQQQSPEDDDRKVRRREKNRVAAQRSRKQTQKADKLHEEYESLEQENTMLRREIGKLTEELKHLTEALKEHEKMCPLLLCPMNFVPVPPRPDPVAGCLPR
modifications: Human BATF3 (protein sequence)
For the molecule B2, in the experiment on chromatin, the “chromatin binding, number of peaks” value is on record as 11,505 peaks and the “positions shared between the three factors as share of total peaks of the factor” value is recorded as 47%.
